Assay results taken from patent publication US4307016A, “Demethyl maytansinoids” (priority 1978, dated 1981).
Values after ≈ are worked out from the molar mass of the structure shown. Read-outs that look alike come from different tables or passages of the source.

What was measured:
[1] = system: Tetrahymena pyriformis W; test: Antiprotozoan activity, serial dilution method (MIC); format: cell-based
Protocol: Then, with Tetrahymena pyriformis W as the test organism and a medium composed of 20 g tryptose-peptone (Difco Co.), 1 g yeast extract, 1 g glucose, 1000 ml distilled water, 10 ml 1 M phosphate buffer (pH 7.0) as the assay medium, the microorganism was incubated at 28° C. for 44 to 48 hours and the growth inhibitory activity of demethylmaytansinoid compound (I) was assayed by the serial dilution method.

[2] = system: Hamigera avellanea IFO 7721; test: Antifungal activity, paper disc method (zone of growth inhibition); format: cell-based; conditions: for zone of inhibition at 100 µg/mL: Hamigera avellanea
Protocol: On the other hand, on agar plates [3.5 g disodium hydrogen phosphate, 0.5 g monopotassium phosphate, 5 g of yeast extract (Difco), 10 g glucose, 15 g agar, 1000 ml distilled water, pH 7.0], the antifungal activity of the test compound was assayed against Hamigera avellanea IFO 7721 by the paper disc method. Thus, on the plates inoculated with the above microorganism, the zones of growth inhibition were determined using paper discs immersed with 0.02 ml of a 100 μg/ml solution of demethylmaytansinoid compound (I).

[3] = Solubility; conditions: for Solubility in chloroform, ethyl acetate, acetone, ethanol, methanol, pyridine, tetrahydrofuran & dimethylsulfoxide: organic solvents (Table 3); for Solubility in petr. ether, n-hexane & water: n-hexane & water (Table 3); for Solubility in benzene, ether: ether (Table 4); for Solubility in chloroform, ethyl acetate, tetrahydrofuran, acetone, ethanol, methanol: organic solvents (Table 4); for Solubility in pyridine, dimethyl sulfoxide: dimethyl sulfoxide (Table 4)
[4] = pH 7, read-out: Antiprotozoan activity, MIC
[5] = IFO7721, read-out: Antifungal activity, (φ mm), zone of growth inhibition, paper disc (8 mm diam.), 0.02 ml of a 100 μg/ml solution
[6] = IFO7721, paper disc (8 mm diam.), 0.02 ml of a 100 μg/ml solution, read-out: Antifungal activity, (φ mm), zone of growth inhibition

SMILES | MIC [1, 4] [µg/mL] | zone of inhibition at 100 µg/mL [2, 5] [mm] | other results
COC1C=CC=C(C)Cc2cc(O)c(Cl)c(c2)N(C)C(=O)CC(OC(=O)[C@H](C)N(C)C(=O)CC(C)C)C2(C)OC2C(C)C2CC1(O)NC(=O)O2 (stereo partly shown) [20-Demethoxy-20-hydroxymaytanvaline (L)] | 2 (≈ 2.78 µM) | 24 | 
COC1C=CC=C(C)Cc2cc(O)c(Cl)c(c2)N(C)C(=O)CC(OC(=O)[C@H](C)N(C)C(=O)C(C)C)C2(C)OC2C(C)C2CC1(O)NC(=O)O2 (stereo partly shown) [20-Demethoxy-20-hydroxymaytanbutine (L)] |  | 24 | 
COc1cc2cc(c1Cl)N(C)C(=O)CC(OC(=O)C(C)C)C1(C)OC1C(C)C1CC(O)(NC(=O)O1)C(OC)C=CC=C(C)C2 (stereo not shown) [Ansamitocin P-3, reference compound] |  |  | Solubility in chloroform, ethyl acetate, acetone, ethanol, methanol, pyridine, tetrahydrofuran & dimethylsulfoxide [3]: Soluble; Solubility in petr. ether, n-hexane & water [3]: Insoluble
COC1C=CC=C(C)Cc2cc(O)cc(c2)N(C)C(=O)CC(OC(=O)C(C)C)C2(C)OC2C(C)C2CC1(O)NC(=O)O2 (stereo not shown) [20-Demethoxy-20-hydroxydechloromaytansinol 3-isobutyrate] |  | 16 | 
COC1C=CC=C(C)Cc2cc(O)c(Cl)c(c2)N(C)C(=O)CC(OC(=O)CC(C)C)C2(C)OC2C(C)C2CC1(O)NC(=O)O2 (stereo not shown) [PDM-4, 20-demethoxy-20-hydroxymaytansinol 3-isovalerate] | 1 (≈ 1.57 µM) | 24 | Solubility in benzene, ether [3]: Slightly soluble; Solubility in chloroform, ethyl acetate, tetrahydrofuran, acetone, ethanol, methanol [3]: Soluble; Solubility in pyridine, dimethyl sulfoxide [3]: Freely soluble
COC1C=CC=C(C)Cc2cc(O)c(Cl)c(c2)N(C)C(=O)CC(OC(=O)Cc2ccccc2)C2(C)OC2C(C)C2CC1(O)NC(=O)O2 (stereo not shown) [20-Demethoxy-20-hydroxymaytansinol 3-phenylacetate] |  |  | zone of inhibition at 100 µg/mL [2, 6]: 23 mm; Antifungal activity, (φ mm), zone of growth inhibition ([2]; paper disc (8 mm diam.), 0.02 ml of a 100 μg/ml solution): 15 mm
COC1C=CC=C(C)Cc2cc(O)c(Cl)c(c2)N(C)C(=O)CC(O)C2(C)OC2C(C)C2CC1(O)NC(=O)O2 (stereo not shown) [20-Demethoxy-20-hydroxymaytansinol] | 40 (≈ 72.6 µM) | < 8 | Solubility in benzene, ether [3]: Slightly soluble; Solubility in chloroform, ethyl acetate, tetrahydrofuran, acetone, ethanol, methanol [3]: Soluble; Solubility in pyridine, dimethyl sulfoxide [3]: Freely soluble
COC1C=CC=C(C)Cc2cc(O)c(Cl)c(c2)N(C)C(=O)CC(OC(=O)C(C)C)C2(C)OC2C(C)C2CC1(O)NC(=O)O2 (stereo not shown) [PDM-3] |  |  | MIC ([1]; serial dilution, 28° C., 44 to 48 hours, pH 7.0, read-out: Antiprotozoan activity, MIC): 2 µg/mL (≈ 3.22 µM); zone of inhibition at 100 µg/mL [2, 6]: 21 mm
COC1C=CC=C(C)Cc2cc(O)c(Cl)c(c2)N(C)C(=O)CC(OC(=O)c2ccc(Cl)cc2)C2(C)OC2C(C)C2CC1(O)NC(=O)O2 (stereo not shown) [20-Demethoxy-20-hydroxymaytansinol 3-p-chlorobenzoate] | 4 (≈ 5.8 µM) | 10 | 
CCCC(=O)OC1CC(=O)N(C)c2cc(cc(O)c2Cl)CC(C)=CC=CC(OC)C2(O)CC(OC(=O)N2)C(C)C2OC12C (stereo not shown) [PDM-3', 20-demethoxy-20-hydroxymaytansinol 3-butyrate] | 2 (≈ 3.22 µM) | 21 | 
COC1C=CC=C(C)Cc2cc(O)c(Cl)c(c2)N(C)C(=O)CC(OC(C)=O)C2(C)OC2C(C)C2CC1(O)NC(=O)O2 (stereo not shown) [20-Demethoxy-20-hydroxymaytanacine] | 10 (≈ 16.9 µM) | 10 | Solubility in benzene, ether [3]: Slightly soluble; Solubility in chloroform, ethyl acetate, tetrahydrofuran, acetone, ethanol, methanol [3]: Soluble; Solubility in pyridine, dimethyl sulfoxide [3]: Freely soluble
COC1C=CC=C(C)Cc2cc(O)c(Cl)c(c2)N(C)C(=O)CC(OC(=O)c2ccccn2)C2(C)OC2C(C)C2CC1(O)NC(=O)O2 (stereo not shown) [20-Demethoxy-20-hydroxymaytansinol 3-picolinate] | ≥ 4 | 10 | 
CCC(=O)N(C)[C@@H](C)C(=O)OC1CC(=O)N(C)c2cc(cc(O)c2Cl)CC(C)=CC=CC(OC)C2(O)CC(OC(=O)N2)C(C)C2OC12C (stereo partly shown) [20-Demethoxy-20-hydroxymaytanprine (L)] |  | 23 | 
COC1C=CC=C(C)Cc2cc(O)c(Cl)c(c2)N(C)C(=O)CC(OC(=O)C2CCCCC2)C2(C)OC2C(C)C2CC1(O)NC(=O)O2 (stereo not shown) [20-Demethoxy-20-hydroxymaytansinol 3-cyclohexanecarboxylate] |  | 20 | 
COC1C=CC=C(C)Cc2cc(O)c(Cl)c(c2)N(C)C(=O)CC(OC(=O)Nc2ccccc2)C2(C)OC2C(C)C2CC1(O)NC(=O)O2 (stereo not shown) [20-Demethoxy-20-hydroxymaytansinol 3-N-phenylcarbamate] | ≥ 8 | < 8 | 
COC1C=CC=C(C)Cc2cc(O)c(Cl)c(c2)N(C)C(=O)CC(OC(=O)[C@H](C)N(C)C(C)=O)C2(C)OC2C(C)C2CC1(O)NC(=O)O2 (stereo partly shown) [20-Demethoxy-20-hydroxymaytansine (L)] | > 16 |  | 
COc1cc2cc(c1Cl)N(C)C(=O)CC(OC(=O)CC(C)C)C1(C)OC1C(C)C1CC(O)(NC(=O)O1)C(OC)C=CC=C(C)C2 (stereo not shown) [Ansamitocin P-4, reference compound] |  |  | Solubility in chloroform, ethyl acetate, acetone, ethanol, methanol, pyridine, tetrahydrofuran & dimethylsulfoxide [3]: Soluble; Solubility in petr. ether, n-hexane & water [3]: Insoluble
CCCCCC(=O)OC1CC(=O)N(C)c2cc(cc(O)c2Cl)CC(C)=CC=CC(OC)C2(O)CC(OC(=O)N2)C(C)C2OC12C (stereo not shown) [20-Demethoxy-20-hydroxymaytansinol 3-hexanoate] |  | 21 | 
CCC(=O)OC1CC(=O)N(C)c2cc(cc(O)c2Cl)CC(C)=CC=CC(OC)C2(O)CC(OC(=O)N2)C(C)C2OC12C (stereo not shown) [20-Demethoxy-20-hydroxymaytansinol propionate] |  | 15 | Solubility in benzene, ether [3]: Slightly soluble; Solubility in chloroform, ethyl acetate, tetrahydrofuran, acetone, ethanol, methanol [3]: Soluble; Solubility in pyridine, dimethyl sulfoxide [3]: Freely soluble
